Measured values from patent US8158560B2, “Insecticidal arylpyrroline compounds” (Bayer CropScience AG, priority 2009, dated 2012).

Assays:
Type in all cases: in vivo
[1] = system: Nephotettix cincticeps-MR, resistant strain, 3rd-4th instar nymphs; assay: Nephotettix cincticeps spray test (NEPHCI); details: 7 dat
Experimental: Nephotettix cincticeps-Spray Test (NEPHCl)
Insect: Nephotettix cincticeps-MR, resistant strain, 3rd-4th instar nymphs from own culture
Plant: Rice seedlings (Oryza sativa var. Tamanishiki)
Material: ST-method container (200 ml desiccant polystyrene bottle) with a hole in the bottom sealed with metal mesh. The lid has a pit inside to keep desiccant, and it is used to sow rice seeds. The bottle is used upside down as “cover”, the lid with seedling is called “base”. Plastic stand-board with magnet labels to line the ST Bases up (“Stand”)
Solvent pre-mixture: Sorpol® SD: Sorpol® BDB:Dimethylformamide=3:3:14 10 mg a i. is solved with 0.05 ml solvent pre-mixture. Water for dilution contains RME and AS (1000 ppm each) or 0.1% of spreader. Solutions are diluted at the rate of 1:5 for limit concentration determination.
Procedure: On a pit in the center of a base (originally the desiccant space) pieces of paper towel are placed. 20-30 germinated rice seeds are sown on the paper and moistened with water. The base is covered with a plastic cup and kept in an incubator at 30° C. for five days.
The base with rice seedlings is placed on the Stand. Each base is sprayed with the solution.
After drying twelve 3rd-4th instar nymphs of Nephotettix cincticeps-MR are put on the base and confined with the cover. The ST containers on the Stands are kept in the testing room at 25° C. and 50-60% r.h., 16L8D lighting conditions.
After the specified period of time mortality in % is determined by rating according to the following scheme/criteria: Counting living moving insects, calculate mortality in % by the formula: […]

[2] = system: Myzus persicae-resistant strain, mixed population; assay: Myzus persicae spray test (MYZUPE); details: 4 ppm, 6 dat, rating scheme
Experimental: Myzus persicae—Spray Test (MYZUPE)
Insect: Myzus persicae-resistant strain, mixed population
Plant: Eggplant seedling (Solanum melongena var. Senryo 2gou) 2 leaf age (4-5 weeks after sowing), transplanted into vinyl pots of 60 mm diameter
Solvent pre-mixture: Sorpol® SD: Sorpol® BDB:Dimethylformamide=3:3:14; 10 mg a.i. is solved with 0.05 ml solvent pre-mixture. Water for dilution contains RME and AS (1000 ppm each) or 0.1% of spreader. Solutions are diluted at the rate of 1:5 for limit concentration determination.
Procedure: 1 day before treatment aphids are inoculated onto the testing plants, about 50 aphids per leaf, 100 for 1 pot. A paper label is placed on each pot. Solutions are sprayed directly onto both insects and plants. After drying pots are placed in the greenhouse at 20° C.-25° C. and 50-60% relative humidity.
After the specified period of time the mortality in % is determined and the rate of death is calculated according to the following scheme/criteria: […]

[3] = system: Bemisia tabacii biotype B; assay: Bemisia tabacii spray test (BEMIAR); details: 100 ppm, 14 dat, rating scheme b324
Experimental: Bemisia tabacii—Spray-Test (BEMIAR)
Insect: Bemisia tabacii biotype B
Plant: Tomato seedlings, 5 leaf stage in vinyl pots of 40 mm diameter
(§1) Solvent pre-mixture: Sorpol® SD: Sorpol® BDB:Dimethylformamide=3:3:14
10 mg a.i. is solved with 0.05 ml solvent pre-mixture. Water for dilution contains RME and AS (1000 ppm each) or 0.1% of spreader. Solutions are diluted at the rate of 1:5 for limit concentration determination.
Procedure: Solutions are sprayed to the plants. After drying treated pots are placed in the greenhouse where breeding BEMIAR for an infection-time of 24 h. Then the plants is placed in the testing room at 25° C. and 50-60% r.h., 16L8D lighting conditions.
(§2) After the specified period of time mortality in % is determined according to the following scheme/criteria: […]

[4] = system: Aulacophora femoralis 2nd instar larvae; assay: Aulacophora femoralis spray test (AUACFE); details: 0.8 ppm, 6 dat, rating scheme b297
Experimental: Aulacophora femoralis—Spray Test (AUACFE)
Insect: Aulacophora femoralis 2nd instar larvae from own culture;
Material: PET cups with 5 ml soil and A-PET lids
Plant: Cucumber (Cucumis sativus var. Hanshiro), cotyledon stage; 1 plant per pot;
Solvent pre-mixture: Sorpol® SD: Sorpol® BDB:Dimethylformamide=3:3:14;
10 mg a.i. solved with 0.05 ml solvent pre-mixture. Water for dilution contains RME and AS (1000 ppm each) or 0.1% of spreader. Solutions are diluted at the rate of 1:5 for limit concentration determination.
Procedure: Solutions are sprayed onto a plant. After drying, plants are cut and put on the soil in the testing cup. Five larvae L2 are released into each testing cup.
The testing cup is covered with the lid and stored at 25° C. and 50-60% r.h., 16L8D lighting conditions.
After the specified period of time, the mortality in % is determined according to the following scheme/criteria: […]

[5] = system: Panonychus citri; assay: Panonychus citri spray test (METTCI); details: 4 ppm, 7 dat, rating scheme b306
Experimental: Panonychus citri—Spray Test (METTCI)
Plant: Citrus plants, ca 8 cm height
as §1
(§3) 10 mg a i. is solved with 0.05 ml solvent pre-mixture.
(§4) Water for dilution contains RME and AS (1000 ppm each) or 0.1% of spreader. Solutions are diluted at the rate of 1:5 for limit concentration determination.
Procedure: 1 day before treatment mites were inoculated onto potted citrus plants, about 50 adults and some nymphs for 1 pot. The test solution is sprayed directly onto both mites and plants. After drying pots are stored at 25° C.
After the specified period of time mortality in % is determined by rating according to the following scheme/criteria.

[6] = system: Plutella xylostella 3rd instar larvae; assay: Plutella xylostella spray test (PLUTXY); details: PLUTMA; 0.8 ppm; 7 dat
Experimental: Plutella xylostella—Spray Test (PLUTXY)
Insect: Plutella xylostella 3rd instar larvae from own culture
Material: A-PET cup, A-PET lids
Plant: Broccoli 5 leaf stage
as §1
10 mg a i. is solved with 0.05 ml solvent pre-mixture
as §4
Procedure: Broccoli seedlings of 4-5 leaf stage planted in a vinyl pot (9 cm diameter) are sprayed with the solution. After drying half of the leaves of the plants are cut and put into a A-PET cup. Ten larvae of Plutella xylostella L3 are released in the cup and the dish is placed at 25° C. After 4 days another half leaf is cut and added to the dish. After the specified period of time mortality in % is determined according to the figures of mortality used for evaluation. • 1 larva dead: 20% Efficacy • 5 larvae dead: 100% Efficacy Adoxophyes honmai—Test (ADXPFA)

[7] = system: Tetranychus urticae; assay: Biological Test Example 2: test against two-spotted spider mite (Tetranychus urticae), spray on kidney bean; details: 168 h, active compound concentration 100 ppm, adult mites, after 7 days, read-out: acaricidal activity
Experimental: (§5) Unless not mentioned otherwise, the test solutions were prepared as follows:
(§6) Containing as solvent: Dimethylformamide, 3 parts by weight; and as emulsifier: Polyoxyethylene alkyl phenyl ether, 1 part by weight
(§7) To prepare the test solution, 1 part by weight of an active compound is mixed with the above-mentioned amount of solvent containing the above-mentioned amount of emulsifier, and the mixture is diluted with water to the desired concentration.
Test Against Two-Spotted Spider Mite (Tetranvchus urticae)
50 to 100 adult mites of Tetranychus urticae were inoculated to leaves of kidney bean at two-leaf stage planted in a pot of 6 cm in diameter. After one day, test solution at the appropriate concentration was sprayed thereon in a sufficient amount using a spray gun. After the spraying, the plant pot was placed inside a greenhouse, and after 7 days, the acaricidal activity was calculated. An acaricidal activity of 100% means that all mites were killed, whereas an acaricidal activity of 0% means that no mite was killed.

[8] = system: Spodoptera litura; assay: Biological Test Example 1: test against tobacco cutworm (Spodoptera litura) larvae, sweet potato leaf dip; details: foliar, 168 h, active compound concentration 100 ppm, third instar larvae, after 7 days, read-out: insecticidal activity
Experimental: as §5, §6, §7
Test Against Tobacco Cutworm (Spodoptera litura) Larvae
Leaves of sweet potato were immersed in the test solution at the appropriate concentration, and the leaves were dried in air. The leaves were then placed in a petri dish having a diameter of 9 cm, and ten Spodoptera litura at third instar larvae were released therein. The petri dishes were placed in a temperature-controlled chamber at 25° C.
After 2 days and 4 days more sweet potato leaves were added. After 7 days, the number of dead larvae was counted and the insecticidal activity was calculated. An insecticidal activity of 100% means that all larvae were killed, whereas an insecticidal activity of 0% means that no larva was killed. In the current test, the results of two petri dishes for each treatment were averaged.

[9] = system: Aulacophora femoralis; assay: Biological Test Example 3: test against cucurbit leaf beetle (Aulacophora femoralis), cucumber leaf dip; details: foliar, 168 h, active compound concentration 100 ppm, second instar larvae, after 7 days, read-out: insecticidal activity
Experimental: as §5, §6, §7
Test Against Cucurbit Leaf Beetle (Aulacophora femoralis)
Leaves of cucumber were immersed in the test solution at the appropriate concentration, and the leaves were dried in air. The leaves were then put in a plastic cup containing sterilized black soil and five Aulacophora femoralis at second instar larvae were released in the cup. The cups were placed in a temperature-controlled chamber at 25° C. After 7 days, the number of dead larvae was counted, and the insecticidal activity was calculated. An insecticidal activity of 100% means that all larvae were killed, whereas an insecticidal activity of 0% means that no larva was killed.

[10] = system: organic phosphorus agent- and carbamate agent-resistant Myzus persicae; assay: Biological Test Example 4: test against organic phosphorus agent- and carbamate agent-resistant green peach aphid (Myzus persicae), spray on eggplant; details: active compound concentration 100 ppm; after 7 days
Experimental: as §5, §6, §7
Test Against Organic Phosphorus Agent- and Carbamate Agent Resistant Green Peach Aphid (Myzus persicae)
50 to 100 head of organic phosphorous agent- and carbamate agent-resistant Myzus persicae were inoculated to leaves of eggplant at two-leaf stage, planted in a pot of 6 cm in diameter. After one day, test solution at the appropriate concentration was sprayed thereon in a sufficient amount using a spray gun. After the spraying, the plant pot was placed inside a greenhouse, and after 7 days, the insecticidal rate was calculated.
An insecticidal activity of 100% means that all aphids were killed, whereas an insecticidal activity of 0% means that no aphid was killed.

[11] = system: Spodoptera litura L2 stage; assay: Spodoptera litura root soaking test (PRODLI); details: 20 ppm, 4 dat
Experimental: Spodoptera litura—Root Soaking Test (PRODLI)
Insect: Spodoptera litura L2 stage;
Material: Culture media bottles for hydroponics: Plastic (A-PET) cups for test, square type;
Plant: Broccoli 5 leaf stage (ca. 12 cm high), soil around the roots was washed off just before the test;
Solvent pre-mixture “Sorpol SD” for root soaking test;
Sorpol SD: Sorpol BDB:Dimethylformamide=3:3:140
Procedure: Test solutions are prepared in the bottles at the appropriate concentration. The test plant root is dipped into the test solution in the bottle and kept in a test room. After 3 days, ⅓ part of the leaves of the plants is cut and put into the A-PET cup.
Into each test cup five larvae L2 are released, the cup is covered with a lid and stored at 25° C. and at a relative humidity of 50-60% and under 16L8D lighting conditions.
After the specified period of time the mortality in % is determined and the rate of death is calculated.

[12] = system: Tetranychus urticae-S (sensible strain) mixed population; assay: Tetranychus urticae test (TETRUR); details: 0.16 ppm, 2 dat, rating scheme b334
Experimental: Tetranychus urticae—Test (TETRUR)
Insect: Tetranychus urticae-S (sensible strain) mixed population from own culture
Plant: Kidney bean seedlings (Phaseolus vulgaris var. Serena), 2 leaf stage (1 week after sowing)
as §1, §3, §4
Procedure: 1 day before treatment the apex parts of testing plants are pruned. Mites are inoculated onto the testing plants, about 20 adults per leaf, 40 adults and some nymphs for 1 pot. A paper label is placed on each pot. The solution is sprayed onto mites and plants. After drying pots are placed in the greenhouse, temperature 20° C.-25° C.
as §2

SMILES | Efficacy/day(s) of treatment [2] [%/6 dat] | Efficacy/day(s) of treatment [3] [%/14 dat] | Efficacy/day(s) of treatment ([1]; 100 ppm) [%/7 dat] | Efficacy/day(s) of treatment [6] [%/7 dat] | Efficacy/day(s) of treatment [11] [%/4 dat] | Efficacy/day(s) of treatment [12] [%/2 dat] | also measured
Cc1cc(C2=NOC(c3cc(C(F)(F)F)cc(C(F)(F)F)c3)(C(F)(F)F)C2)ccc1C(=O)NC1CSC1 (stereo not drawn) [ExNo A21 of WO 2009/080250, reference compound] | 60 | 60 |  |  |  |  | Efficacy/day(s) of treatment ([1]; 20 ppm): 0%/7 dat; Efficacy/day(s) of treatment [4]: 50%/6 dat; Efficacy/day(s) of treatment [5]: 0%/7 dat
Cc1cc(C2=NOC(c3cc(C(F)(F)F)cc(C(F)(F)F)c3)(C(F)(F)F)C2)ccc1C(=O)NC1CS(=O)(=O)C1 (stereo not drawn) [Compound C-1, reference compound] | 60 | 60 | 70 | 80 |  |  | 
Cc1cc(C2=NCC(c3cc(C(F)(F)F)cc(C(F)(F)F)c3)(C(F)(F)F)C2)ccc1C(=O)NC1CS(=O)(=O)C1 (stereo not drawn) [Compound 1-21, 4-{3-[3,5-Bis(trifluoromethyl)phenyl]-3-(trifluoromethyl)-3,4-dihydro-2H-pyrrol-5-yl}-N-(1,1-dioxidothietan-3-yl)-2-methylbenzamide] | 98 | 98 | 90 | 100 |  |  | pest or weed control at 100 ppm [7]: 100%; pest or weed control at 100 ppm [8]: 100%; pest or weed control at 100 ppm [9]: 100%; insecticidal activity [10]: 100%
Cc1cc(C2=NOC(c3cc(Cl)cc(Cl)c3)(C(F)(F)F)C2)ccc1C(=O)NC1CSC1 (stereo not drawn) [ExNo A-4 of WO 2009/080250] |  |  |  |  | 80 | 60 | 
Cc1cc(C2=NCC(c3cc(Cl)cc(Cl)c3)(C(F)(F)F)C2)ccc1C(=O)NC1CSC1 (stereo not drawn) [ExNo A49 of WO 2010/020522] |  |  |  |  | 100 | 90 | 
